20 compounds from US8816085B2 (Takeda GmbH, priority 2009, dated 2014) can be followed below.

The experiment addresses T1, PDE5A1 (human PDE5 from platelets) (Homo sapiens, UniProt O76074).
T1 construct: from tissue; host or cells: platelets from fresh blood of human donors (10,000 g supernatant of sonified platelets)
As to the kind of experiment: Inhibition of type 5 phosphodiesterase (PDE5) activity, modified SPA test. Type of experiment: biochemical. The conditions noted are these: PDE5-containing human platelet lysate, 0.5 μM cGMP, value classes, read-out: PDE5A1 inhibitory values [measured as −logIC50 (mol/l)] (converted). As for the experimental part:
Method for Measuring Inhibition of the Type 5 Phosphodiesterase (PDE5) Activity:
As a source for human PDE5, platelets are used. For that purpose, 150 ml fresh blood from human donors anticoagulated with citrate [final concentration 0.3% (w/v)] is centrifuged at 200 g for 10 min to obtain the so-called platelet-rich-plasma (PRP) as a supernatant. 1/10 volume of ACD solution (85 mM Na3-citrate, 111 mM D-glucose, 71 mM citric acid, pH 4.4) is added to 9/10 volume of PRP. After centrifugation (1,400 g, 10 min) the cell pellet is resuspended in 3 ml homogenization buffer (NaCl 140 mM, KCl 3.8 mM, EGTA (ethylene glycol tetraacetic acid) 1 mM, MgCl2 1 mM, Tris-HCl 20 mM, beta-mercaptoethanol 1 mM, pH 8.2) plus protease-inhibitor mix giving rise to the final concentrations of 0.5 mM Pefablock (Roche), 10 μM Leupeptin, 5 μM Trypsininhibitor, 2 mM Benzamidin and 10 μM Pepstatin A. The suspension is sonified and thereafter centrifuged for 15 min at 10,000 g. The resulting supernatant (platelet lysate) is used for enzymatic testings.
PDE5A1 activity is inhibited by the compounds of the present subject matter in a modified SPA (scintillation proximity assay) test, supplied by Amersham Biosciences (see procedural instructions “phosphodiesterase [3H]cAMP SPA enzyme assay, code TRKQ 7090”), carried out in 96-well microtitre plates (MTP's). The test volume is 100 μl and contains 20 mM Tris buffer (pH 7.4), 0.1 mg of BSA (bovine serum albumin)/ml, 5 mM Mg^2+, 1 μM motapizone, 10 nM PDE2 inhibitor 2-(3,4-dimethoxybenzyl)-7-[(1R,2R)-2-hydroxy-1-(2-phenylethyl)propyl]-5-methylimidazo[5,1-t][1,2,4]triazin-4(3H)-one, 0.5 μM cGMP (cyclic guanosine monophosphate) (including about 50,000 cpm of [3H]cGMP as a tracer), 1 μl of the respective compound dilution in dimethylsulfoxide (DMSO) and sufficient PDE5-containing platelet lysat (10,000×g supernatant, see above) to ensure that 10-20 wt % of the cGMP is converted under the said experimental conditions. […] After a preincubation of 5 min at 37° C., the reaction is started by adding the substrate (cGMP) and the assay is incubated for a further 15 min; after that, it is stopped by adding SPA beads (50 μl). In accordance with the manufacturer's instructions, the SPA beads had previously been resuspended in water, but are then diluted 1:3 (v/v) in water; the diluted solution also contains 3 mM 8-methoxymethyl-3-isobutyl-1-methylxanthine (IBMX) to ensure a complete PDE activity stop. After the beads have been sedimented (>30 min), the MTP's are analyzed in commercially available luminescence detection devices. The corresponding IC50 values of the compounds for the inhibition of PDE activity are determined from the concentration-effect curves by means of non-linear regression.

On to `COCC(=O)N[C@H]1CC[C@@H](NC(=O)c2c(C)[nH]c3c(-c4cc(F)ccc4OCC4CC4)ccnc23)CC1` [Example E27, 7-[2-(Cyclopropylmethoxy)-5-fluorophenyl]-N-{cis-4-[(methoxyacetyl)amino]cyclohexyl}-2-methyl-1H-pyrrolo[3,2-b]pyridine-3-carboxamide], for which the IC50 was 1 to 10 nM. Consider `COc1ccc(-c2ccnc3c(C(=O)NC4CCN(C(C)=O)CC4)c(C)[nH]c23)c(OCC2CC2)c1` [Example E31, N-(1-Acetylpiperidin-4-yl)-7-[2-(cyclopropylmethoxy)-4-methoxyphenyl]-2-methyl-1H-pyrrolo[3,2-b]pyridine-3-carboxamide], for which the IC50 is less than 1 nM. On to `CCC(=O)N1CCC(NC(=O)c2c(C)[nH]c3c(-c4ccc(OC)cc4OCC4CC4)ccnc23)CC1` [Example E32, 7-[2-(Cyclopropylmethoxy)-4-methoxyphenyl]-2-methyl-N-(1-propanoylpiperidin-4-yl)-1H-pyrrolo[3,2-b]pyridine-3-carboxamide], for which the IC50 was less than 1 nM. For the compound `COCC(=O)N1CCC(NC(=O)c2c(C)[nH]c3c(-c4ccc(OC)cc4OCC4CC4)ccnc23)CC1` [Example E33, 7-[2-(Cyclopropylmethoxy)-4-methoxyphenyl]-N-[1-(methoxyacetyl)piperidin-4-yl]-2-methyl-1H-pyrrolo[3,2-b]pyridine-3-carboxamide], the IC50 is less than 1 nM. The same measure for `COc1ccc(-c2ccnc3c(C(=O)N[C@H]4CC[C@H](NC(C)=O)CC4)c(C)[nH]c23)c(OCC2CC2)c1` [Example E34, N-[trans-4-(Acetylamino)cyclohexyl]-7-[2-(cyclopropylmethoxy)-4-methoxyphenyl]-2-methyl-1H-pyrrolo[3,2-b]pyridine-3-carboxamide]: less than 1 nM; for `CCC(=O)N[C@H]1CC[C@H](NC(=O)c2c(C)[nH]c3c(-c4ccc(OC)cc4OCC4CC4)ccnc23)CC1` [Example E35, 7-[2-(Cyclopropylmethoxy)-4-methoxyphenyl]-2-methyl-N-[trans-4-(propanoylamino)cyclohexyl]-1H-pyrrolo[3,2-b]pyridine-3-carboxamide]: less than 1 nM; for `COCC(=O)N[C@H]1CC[C@H](NC(=O)c2c(C)[nH]c3c(-c4ccc(OC)cc4OCC4CC4)ccnc23)CC1` [Example E36, 7-[2-(Cyclopropylmethoxy)-4-methoxyphenyl]-N-{trans-4-[(methoxyacetyl)amino]cyclohexyl}-2-methyl-1H-pyrrolo[3,2-b]pyridine-3-carboxamide]: less than 1 nM. As for `COc1ccc(-c2ccnc3c(C(=O)N[C@H]4CC[C@@H](NC(C)=O)CC4)c(C)[nH]c23)c(OCC2CC2)c1` [Example E37, N-[cis-4-(Acetylamino)cyclohexyl]-7-[2-(cyclopropylmethoxy)-4-methoxyphenyl]-2-methyl-1H-pyrrolo[3,2-b]pyridine-3-carboxamide], the IC50 was less than 1 nM. The same measure for `CCC(=O)N[C@H]1CC[C@@H](NC(=O)c2c(C)[nH]c3c(-c4ccc(OC)cc4OCC4CC4)ccnc23)CC1` [Example E38, 7-[2-(Cyclopropylmethoxy)-4-methoxyphenyl]-2-methyl-N-[cis-4-(propanoylamino)cyclohexyl]-1H-pyrrolo[3,2-b]pyridine-3-carboxamide]: less than 1 nM. To `COCC(=O)N[C@H]1CC[C@@H](NC(=O)c2c(C)[nH]c3c(-c4ccc(OC)cc4OCC4CC4)ccnc23)CC1` [Example E39, 7-[2-(Cyclopropylmethoxy)-4-methoxyphenyl]-N-{cis-4-[(methoxyacetyl)amino]cyclohexyl}-2-methyl-1H-pyrrolo[3,2-b]pyridine-3-carboxamide] belongs 1 to 10 nM; to `COc1ccc(OCC2CC2)c(-c2ccnc3c(C(=O)NC4CCN(C(C)=O)CC4)c(C)[nH]c23)c1` [Example E40, N-(1-Acetylpiperidin-4-yl)-7-[2-(cyclopropylmethoxy)-5-methoxyphenyl]-2-methyl-1H-pyrrolo[3,2-b]pyridine-3-carboxamide], less than 1 nM.

`CCC(=O)N1CCC(NC(=O)c2c(C)[nH]c3c(-c4cc(OC)ccc4OCC4CC4)ccnc23)CC1` [Example E41, 7-[2-(cyclopropylmethoxy)-5-methoxyphenyl]-2-methyl-N-(1-propanoylpiperidin-4-yl)-1H-pyrrolo[3,2-b]pyridine-3-carboxamide]: the IC50 was less than 1 nM. To `COCC(=O)N1CCC(NC(=O)c2c(C)[nH]c3c(-c4cc(OC)ccc4OCC4CC4)ccnc23)CC1` [Example E42, 7-[2-(cyclopropylmethoxy)-5-methoxyphenyl]-N-[1-(methoxyacetyl)piperidin-4-yl]-2-methyl-1H-pyrrolo[3,2-b]pyridine-3-carboxamide] belongs 1 to 10 nM; to `COc1ccc(OCC2CC2)c(-c2ccnc3c(C(=O)N[C@H]4CC[C@H](NC(C)=O)CC4)c(C)[nH]c23)c1` [Example E43, N-[trans-4-(Acetylamino)cyclohexyl]-7-[2-(cyclopropylmethoxy)-5-methoxyphenyl]-2-methyl-1H-pyrrolo[3,2-b]pyridine-3-carboxamide], less than 1 nM; to `CCC(=O)N[C@H]1CC[C@H](NC(=O)c2c(C)[nH]c3c(-c4cc(OC)ccc4OCC4CC4)ccnc23)CC1` [Example E44, 7-[2-(Cyclopropylmethoxy)-5-methoxyphenyl]-2-methyl-N-[trans-4-(propanoylamino)cyclohexyl]-1H-pyrrolo[3,2-b]pyridine-3-carboxamide], less than 1 nM. To `COCC(=O)N[C@H]1CC[C@H](NC(=O)c2c(C)[nH]c3c(-c4cc(OC)ccc4OCC4CC4)ccnc23)CC1` [Example E45, 7-[2-(Cyclopropylmethoxy)-5-methoxyphenyl]-N-{trans-4-[(methoxyacetyl)amino]cyclohexyl}-2-methyl-1H-pyrrolo[3,2-b]pyridine-3-carboxamide] belongs less than 1 nM. To `COc1ccc(OCC2CC2)c(-c2ccnc3c(C(=O)N[C@H]4CC[C@@H](NC(C)=O)CC4)c(C)[nH]c23)c1` [Example E46, N-[cis-4-(Acetylamino)cyclohexyl]-7-[2-(cyclopropylmethoxy)-5-methoxyphenyl]-2-methyl-1H-pyrrolo[3,2-b]pyridine-3-carboxamide] belongs less than 1 nM. On to `CCC(=O)N[C@H]1CC[C@@H](NC(=O)c2c(C)[nH]c3c(-c4cc(OC)ccc4OCC4CC4)ccnc23)CC1` [Example E47, 7-[2-(Cyclopropylmethoxy)-5-methoxyphenyl]-2-methyl-N-[cis-4-(propanoylamino)cyclohexyl]-1H-pyrrolo[3,2-b]pyridine-3-carboxamide], for which the IC50 was 1 to 10 nM. In the case of `COCC(=O)N[C@H]1CC[C@@H](NC(=O)c2c(C)[nH]c3c(-c4cc(OC)ccc4OCC4CC4)ccnc23)CC1` [Example E48, 7-[2-(Cyclopropylmethoxy)-5-methoxyphenyl]-N-{cis-4-[(methoxyacetyl)amino]cyclohexyl}-2-methyl-1H-pyrrolo[3,2-b]pyridine-3-carboxamide], the IC50 was 1 to 10 nM. The same measure for `CC(=O)N1CCC(NC(=O)c2c(C)[nH]c3c(-c4cc(C)ccc4OCC4CC4)ccnc23)CC1` [Example E52, N-(1-Acetylpiperidin-4-yl)-7-[2-(cyclopropylmethoxy)-5-methylphenyl]-2-methyl-1H-pyrrolo[3,2-b]pyridine-3-carboxamide]: 1 to 10 nM.
